# According to US10369183B2, “Therapeutic compositions from jamaican bitter yam and methods of making and using same” (University of The West Indies, priority 2008, dated 2019):
# Marks after values point to notes of the source that are not given here.
# Experiments:
# Type in all cases: in vivo, Wistar rats
# acid phosphatase = experiment: Acid phosphatase activity of liver, kidney and spleen in diabetic rats; conditions: diabetic rats fed 1% of diet, 4 weeks, mean ± SEM
# Description: (§1) Experimental design for the animal studies: adult Wistar rats […] were divided into six groups (8 rats per group, average body weight 249.0±0.3 g) as follows: Group 1—healthy rats receiving normal diet (normal); Group 2—diabetic rats fed normal diet (diabetic); Group 3—diabetic rats fed sapogenin extract (as 1% of the diet); Group 4—diabetic rats fed diosgenin (as 1% of normal diet); Group 5—diabetic rats fed bitter yam (as 1% of diet); and Group 6 fed the bitter yam therapeutic product (BYTP—as 1% of the diet).
# (§2) The rats except the control group were made diabetic using standard procedures involving streptozotocin (60 mg/kg body weight in 0.05 M citrate buffer, pH 4.5) injection intraperitonally. The control group rats were injected with an equivalent amount of buffer (0.05 M citrate buffer, pH 4.5). The normal rat diet (PMI Feeds Inc., Lab diet #5001) was a marketed laboratory rodent diet recommended for rats, mice and hamsters with the approximate chemical composition: protein 23%, fat 4.5%, fiber 6.0%, ash 8.0% and carbohydrate 58.5%. Rats were housed in stainless steel cages in a room kept on a 12-hour light-dark cycle, and were allowed to have access to their respective diets and water freely. The cages were cleaned daily. Body weight change, faecal output and total food intake were recorded weekly. The rats were fed on their respective diets for 4 weeks and sacrificed by decapitation after an overnight fast. Blood was collected in oxalate/fluoride vacutainers. The intestine, kidney, liver and spleen were excised, weighed and frozen in liquid nitrogen and stored at −20° C. until required for analysis. A section of the jejunum was cut and stored in 10% buffered formalin.
# maltase = experiment: Intestinal maltase activity in diabetic rats; conditions: diabetic rats fed 1% of diet, mean ± SEM
# Description: as §1, §2
# diabetic rats = experiment: Lipid peroxidation (conjugated dienes, TBARS) in diabetic rats; conditions: diabetic rats fed 1% of diet, 4 weeks, mean ± SEM
# Description: as §1, §2
# Lipid peroxidation assays were conducted using the procedure of Tappel and Zalkin, Arch Biochim Biophys, 80: 333-336 (1959). Concentration of conjugated dienes in the liver was determined using the method of Hu et al., J Nutr, 119: 1574-1582 (1989).
# Ca^2+ ATPase = experiment: Intestinal Ca2+ ATPase activity in diabetic rats; conditions: diabetic rats fed 1% of diet, mean ± SEM
# Procedure: (§3) Group 1—healthy rats receiving normal diet (normal); Group 2—diabetic rats fed normal diet (diabetic); […] Group 4—diabetic rats fed diosgenin (as 1% of normal diet); Group 5—diabetic rats fed bitter yam (as 1% of diet); and Group 6 fed the bitter yam therapeutic product (BYTP—as 1% of the diet). The rats except the control group were made diabetic using standard procedures involving streptozotocin (60 mg/kg body weight in 0.05 M citrate buffer, pH 4.5) injection intraperitonally. The control group rats were injected with an equivalent amount of buffer (0.05 M citrate buffer, pH 4.5). […] Rats were housed in stainless steel cages in a room kept on a 12-hour light-dark cycle, and were allowed to have access to their respective diets and water freely. The cages were cleaned daily. Body weight change, faecal output and total food intake were recorded weekly. The rats were fed on their respective diets for 4 weeks and sacrificed by decapitation after an overnight fast. Blood was collected in oxalate/fluoride vacutainers. The intestine, kidney, liver and spleen were excised, weighed and frozen in liquid nitrogen and stored at −20° C. until required for analysis. A section of the jejunum was cut and stored in 10% buffered formalin. Na^+/K^+ and Ca^+ ATPase activities were measured by the amount of inorganic phosphate released following incubation with disodium ATP and cations for the appropriate ATPase (see Bonting et al., Sodium-potassium activated adenosinetriphosphatase and cation transport, in Membranes and Ion Transport I, Bittar (Ed.). Wiley-Interscience, N.Y., pp. 257-363 (1970); and Bonting et al., Archives of Biochemistry and Biophysics 101: 47-55 (1963)). The inorganic phosphate was determined by the method of Fiske and Subarow, Journal of Biological Chemistry 66: 375-400 (1925).
# Na^+/K^+ ATPase = experiment: Intestinal Na+/K+ ATPase activity in diabetic rats; conditions: diabetic rats fed 1% of diet, mean ± SEM
# Procedure: as §3
# glucose-6-phosphatase = experiment: Glucose-6-phosphatase activity in liver and kidneys of diabetic rats; conditions: diabetic rats fed 1% of diet, mean ± SEM
# Description: as §1
# as §2, with “The rats were fed on their respective diets for 4 weeks and sacrificed by decapitation after an overnight fast. Blood was collected in oxalate/fluoride vacutainers. The intestine, kidney, liver and spleen were excised, weighed and frozen in liquid nitrogen and stored at −20° C. until required for analysis. A section of the jejunum was cut and stored in 10% buffered formalin.” left out
# Mg^2+ ATPase = experiment: Intestinal Mg2+ ATPase activity in diabetic rats; conditions: diabetic rats fed 1% of diet, mean ± SEM
# alanine transaminase = experiment: Alanine transaminase activity of liver, kidney and spleen in diabetic rats; conditions: diabetic rats fed 1% of diet, 4 weeks, mean ± SEM
# Description: as §1, §2
# aspartate transaminase = experiment: Aspartate transaminase activity of liver, kidney and spleen in diabetic rats; conditions: diabetic rats fed 1% of diet, 4 weeks, mean ± SEM
# Description: as §1, §2
compound,measurement,setting,value
C[C@@H]1CC[C@@]2(OC1)O[C@H]1C[C@H]3[C@@H]4CC=C5C[C@@H](O)CC[C@]5(C)[C@H]4CC[C@]3(C)[C@H]1[C@@H]2C [diosgenin],Acid phosphatase,acid phosphatase; kidney,27.3 ± 1.1^a mg PNP/min/mg protein × 10^−5
same,Acid phosphatase,acid phosphatase; liver,17.3 ± 0.9^a mg PNP/min/mg protein × 10^−5
same,Acid phosphatase,acid phosphatase; spleen,9.0 ± 0.8^b mg PNP/min/mg protein × 10^−5
same,Specific activity of maltase from different sections of the rat intestine,maltase; Distal,14.0 ± 1.0.^A nmol maltase/min/mg protein
same,Specific activity of maltase from different sections of the rat intestine,maltase; Mid,17.1 ± 0.9^a nmol maltase/min/mg protein
same,Specific activity of maltase from different sections of the rat intestine,maltase; Upper,18.4 ± 1.2^a nmol maltase/min/mg protein
same,Kidney TBARS,diabetic rats,61.7 ± 6.6^a nmol/g kidney
same,Liver TBARS,diabetic rats,18.1 ± 2.1^a nmol/g liver
same,Conjugated dienes,diabetic rats; liver,0.428 ± 0.082^a μmole/g liver
same,Specific activity of Ca^2+ ATPase from rat intestinal sections,Ca^2+ ATPase; Distal,13.1 ± 0.3^b nmol Pi/min/mg protein
same,Specific activity of Ca^2+ ATPase from rat intestinal sections,Ca^2+ ATPase; Mid,17.1 ± 0.4^c nmol Pi/min/mg protein
same,Specific activity of Ca^2+ ATPase from rat intestinal sections,Ca^2+ ATPase; Proximal,34.9 ± 0.6^a nmol Pi/min/mg protein
same,Specific activity of Na^+/K^+ ATPase from rat intestinal sections,Na^+/K^+ ATPase; Distal,7.3 ± 0.1^c nmol Pi/min/mg protein
same,Specific activity of Na^+/K^+ ATPase from rat intestinal sections,Na^+/K^+ ATPase; Mid,9.5 ± 0.1^c nmol Pi/min/mg protein
same,Specific activity of Na^+/K^+ ATPase from rat intestinal sections,Na^+/K^+ ATPase; Proximal,12.8 ± 0.2^c nmol Pi/min/mg protein
same,"glucose-6-phosphatase activity, Kidney",glucose-6-phosphatase; kidney,11.0 ± 2.0^b μmole/min/mg protein × 10^−2
same,"glucose-6-phosphatase activity, Liver",glucose-6-phosphatase; liver,8.3 ± 1.0^a μmole/min/mg protein × 10^−2
same,Specific activity of Mg^2+ ATPase from rat intestinal sections,Mg^2+ ATPase; Distal,16.4 ± 0.6^a nmol Pi/min/mg protein
same,Specific activity of Mg^2+ ATPase from rat intestinal sections,Mg^2+ ATPase; Mid,22.1 ± 0.4^b nmol Pi/min/mg protein
same,Specific activity of Mg^2+ ATPase from rat intestinal sections,Mg^2+ ATPase; Proximal,27.8 ± 0.5^a nmol Pi/min/mg protein
same,Alanine transaminase,alanine transaminase; kidney,5.4 ± 0.5^a mg pyr/min/mg protein × 10^−4
same,Alanine transaminase,alanine transaminase; liver,14.1 ± 2.80^a mg pyr/min/mg protein × 10^−4
same,Alanine transaminase,alanine transaminase; spleen,10.7 ± 1.8^ab mg pyr/min/mg protein × 10^−4
same,Aspartate transaminase,aspartate transaminase; kidney,5.5 ± 0.6^bc mg pyr/min/mg protein × 10^−4
same,Aspartate transaminase,aspartate transaminase; liver,8.6 ± 0.7^ab mg pyr/min/mg protein × 10^−4
same,Aspartate transaminase,aspartate transaminase; spleen,7.1 ± 1.3^ab mg pyr/min/mg protein × 10^−4
